Source: patent publication US9695155B2, “Herbicidal substituted pyrimidinyloxy benzene compounds” (E. I. DU PONT DE NEMOURS AND COMPANY, priority 2013, dated 2017)
Like-named read-outs stand apart in the source and are kept apart here.

Experiments:
morningglory = assay: Test A preemergence; type: in vivo, Ipomoea spp.
Procedure, shortened: (§1)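 Visual injury scored 0–100 (100 = complete control) against untreated controls about 10 days after treatment in a greenhouse. Test chemicals, formulated with surfactant in non-phytotoxic solvent, were sprayed on soil preemergence or on 2-10 cm, one- to two-leaf plants postemergence.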

barnyardgrass [1] = assay: Test A postemergence; type: in vivo, Echinochloa crus-galli
Procedure, shortened: as §1

barnyardgrass [2] = assay: Test B flooded paddy test; type: in vivo, Echinochloa crus-galli; details: Flood, 250 g ai/ha, 0 to 100 scale where 0 is no effect and 100 is complete control; for pest or weed control at 250 g/ha: Echinochloa crus-galli, read-out: Plant response rating, Barnyardgrass
Procedure, shortened: (§2)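 Post-emergence paddy-water application at the 2-leaf stage, with 3 cm flood kept for the whole test. Response was judged visually relative to controls after 13 to 15 greenhouse days, 0 indicating no effect and 100 complete control.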

sedge, umbrella = assay: Test B flooded paddy test; type: in vivo, Cyperus difformis; details: Flood, 250 g ai/ha, 0 to 100 scale where 0 is no effect and 100 is complete control; for pest or weed control at 250 g/ha: Cyperus difformis, read-out: Plant response rating, Sedge, Umbrella
Procedure, shortened: as §2

corn [3] = assay: Test A preemergence; type: in vivo, Zea mays
Procedure, shortened: as §1

giant foxtail = assay: Test C preemergence; type: in vivo, Setaria faberii
Source text: (§3) Seeds of plant species selected from blackgrass (Alopecurus myosuroides), Italian ryegrass (Lolium multiflorum), wheat, winter (winter wheat, Triticum aestivum), galium (catchweed bedstraw, Galium aparine), corn (Zea mays), large (Lg) crabgrass (Digitaria sanguinalis), giant foxtail (Setaria faberii), johnsongrass (Sorghum halepense), lambsquarters (Chenopodium album), morningglory (Ipomoea coccinea), yellow nutsedge (Cyperus esculentus), pigweed (Amaranthus retroflexus), ragweed (common ragweed, Ambrosia elatior), soybean (Glycine max), barnyardgrass (Echinochloa crus-galli), oilseed rape (Brassica napus), waterhemp (common waterhemp, Amaranthus rudis), kochia (Kochia scoparia), wild oat (Avena fatua), surinam grass (Brachiaria decumbens), foxtail, green (green foxtail, Setaria viridis), goosegrass (Eleusine indica), bromegrass, downy (downy bromegrass, Bromus tectorum), nightshade (eastern black nightshade, Solanum ptycanthum), cocklebur (common cocklebur, Xanthium strumarium), cupgrass, woolly (woolly cupgrass, Eriochloa villosa), bermudagrass (Cynodon dactylon), sunflower, (common oilseed sunflower, Helianthus annuus), Russian thistle (Salsola kali), and velvetleaf (Abutilon theophrasti) were planted into a blend of loam soil and sand and treated preemergence with test chemicals formulated in a non-phytotoxic solvent mixture which included a surfactant.
(§4) At the same time, plants selected from these crop and weed species and also barley, winter (winter barley, Hordeum vulgare), windgrass (Apera spica-venti), chickweed (common chickweed, Stellaria media), deadnettle (henbit deadnettle, Lamium amplexicaule), and canarygrass (littleseed canarygrass, Phalaris minor) were planted in pots containing Redi-Earth® planting medium (Scotts Company, 14111 Scottslawn Road, Marysville, Ohio 43041) comprising spaghnum peat moss, vermiculite, wetting agent and starter nutrients and treated with postemergence applications of test chemicals formulated in the same manner. Plants ranged in height from 2 to 18 cm (1- to 4-leaf stage) for postemergence treatments. Treated plants and controls were maintained in a greenhouse for 13 to 15 days, after which time all species were compared to controls and visually evaluated. Plant response ratings, summarized in Table C, are based on a scale of 0 to 100 where 0 is no effect and 100 is complete control. A dash (-) response means no test result.

corn [4] = assay: Test C preemergence; type: in vivo, Zea mays
Source text: as §3, §4

[5] = 125 g ai/ha, 0 to 100 scale where 0 is no effect and 100 is complete control
[6] = 500 g ai/ha, 0 to 100 scale, 0 no effect, 100 complete control, approx. 10 days
[7] = 16 g ai/ha, preemergence, scale 0 to 100 (0 no effect, 100 complete control)
[8] = 62 g ai/ha, preemergence, scale 0 (no effect) to 100 (complete control)
[9] = 125 g ai/ha, preemergence, scale 0 (no effect) to 100 (complete control)
[10] = Preemergence, 31 g ai/ha, scale 0 to 100, 0 no effect, 100 complete control
[11] = 31 g ai/ha, 0 to 100 scale, 0 no effect, 100 complete control
[12] = Preemergence, 62 g ai/ha, scale 0 to 100, 0 no effect, 100 complete control
[13] = 125 g ai/ha, 0 to 100 scale, 0 no effect, 100 complete control

Compound | Plant response rating, Barnyardgrass (barnyardgrass [2]) | Plant response rating, Sedge, Umbrella (sedge, umbrella) | Foxtail, Giant plant response rating (giant foxtail; [7]) | Foxtail, Giant plant response rating (giant foxtail; [8]) | Foxtail, Giant plant response rating (giant foxtail; [9]) | Plant response rating, Foxtail, Giant (giant foxtail; [10]) | Corn plant response rating (corn [4]; [7]) | Corn plant response rating (corn [4]; [8]) | Corn plant response rating (corn [4]; [9]) | Plant response rating, Corn (corn [4]; [10]) | Plant response rating, Barnyardgrass (barnyardgrass [1]; [11]) | other results
FC(F)(F)c1ccn(-c2ccccc2Oc2ncc(Cl)cn2)n1 [Compound 2, 5-chloro-2-[2-[3-(trifluoromethyl)-1H-pyrazol-1-yl]phenoxy]pyrimidine] |  |  |  |  |  |  |  |  |  |  |  | pest or weed control at 500 g/ha (morningglory; Ipomoea, pre-emergence, 240 h, 500 g ai/ha, 0 to 100 scale, 0 no effect, 100 complete control, approx. 10 days, read-out: Morningglory plant response rating): 20%; pest or weed control at 125 g/ha (barnyardgrass [1]; Echinochloa crus-galli, post-emergence, 240 h, 125 g ai/ha, 0 to 100 scale where 0 is no effect and 100 is complete control, read-out: Plant response rating, Barnyardgrass): 30%; pest or weed control at 500 g/ha (barnyardgrass [1]; Echinochloa crus-galli, post-emergence, 240 h, 500 g ai/ha, 0 to 100 scale, 0 no effect, 100 complete control, read-out: Plant response rating Barnyardgrass): 70%; pest or weed control at 250 g/ha (barnyardgrass [2]): 0%; pest or weed control at 250 g/ha (sedge, umbrella): 0%; plant injury at 125 g/ha (corn [3]; Zea mays, pre-emergence, 240 h, 125 g ai/ha, 0 to 100 scale where 0 is no effect and 100 is complete control, read-out: Corn plant response rating): 0%; plant injury at 500 g/ha (corn [3]; Zea mays, pre-emergence, 240 h, 500 g ai/ha, 0 to 100 scale, 0 no effect, 100 complete control, approx. 10 days, read-out: Corn plant response rating): 30%
Clc1cnc(Oc2ccccc2-n2cc(Cl)cn2)nc1 [Compound 3] | 0 | 75 |  |  |  |  |  |  |  |  |  | Morningglory plant response rating (morningglory; [5]): 0; Morningglory plant response rating (morningglory; [6]): 20; Plant response rating, Barnyardgrass (barnyardgrass [1]; [5]): 10; Plant response rating, Barnyardgrass (barnyardgrass [1]; 500 g ai/ha, 0 to 100 scale, 0 no effect, 100 complete control): 90; Corn plant response rating (corn [3]; [5]): 0; Corn plant response rating (corn [3]; [6]): 10
FCc1cccc(Oc2ncc(F)cn2)c1-n1cc(C(F)(F)F)cn1 [Compound 118] | 50 | 95 | 25 | 95 | 100 | 75 | 10 | 70 | 85 | 40 | 30 | Plant response rating, Barnyardgrass (barnyardgrass [1]; [5]): 80
COc1cnn(-c2c(C#N)cccc2Oc2ncc(Cl)cn2)c1 [Compound 137] | 0 | 0 | 35 | 60 | 90 | 5 | 0 | 5 | 10 | 5 |  | Barnyardgrass plant response rating (barnyardgrass [1]; [5]): 0; Plant response rating, Barnyardgrass (barnyardgrass [1]; 500 g ai/ha, 0 to 100 scale where 0 is no effect and 100 is complete control): 100
N#Cc1cnn(-c2c(CF)cccc2Oc2ncc(F)cn2)c1 [Compound 151] | 0 | 0 | 5 | 80 | 100 | 35 | 0 | 15 | 70 | 5 | 0 | Barnyardgrass plant response rating (barnyardgrass [1]; [5]): 60
FCc1cccc(Oc2ncc(Cl)cn2)c1-n1cc(Cl)cn1 [Compound 250] | 0 | 35 | 5 |  | 100 |  | 0 |  | 10 |  | 10 | Plant response rating, Foxtail, Giant (giant foxtail; [12]): 100; Plant response rating, Corn (corn [4]; [12]): 0; Plant response rating, Barnyardgrass (barnyardgrass [1]; [13]): 60
N#Cc1cccc(Oc2ncc(Cl)cn2)c1-n1cnc(C(F)(F)F)c1 [Compound 252, 3-[(5-chloro-2-pyrimidinyl)oxy]-2-[4-(trifluoromethyl)-1H-imidazol-1-yl]benzonitrile] |  |  |  |  |  |  |  |  |  |  |  | pest or weed control at 16 g/ha (giant foxtail; Setaria faberi, pre-emergence, 16 g ai/ha, preemergence, scale 0 to 100 (0 no effect, 100 complete control), read-out: Foxtail, Giant plant response rating): 35%; pest or weed control at 125 g/ha (giant foxtail; Setaria faberi, pre-emergence, 125 g ai/ha, preemergence, scale 0 (no effect) to 100 (complete control), read-out: Foxtail, Giant plant response rating): 100%; pest or weed control at 62 g/ha (giant foxtail; Setaria faberi, pre-emergence, Preemergence, 62 g ai/ha, scale 0 to 100, 0 no effect, 100 complete control, read-out: Plant response rating, Foxtail, Giant): 100%; plant injury at 16 g/ha (corn [4]; Zea mays, pre-emergence, 16 g ai/ha, preemergence, scale 0 to 100 (0 no effect, 100 complete control), read-out: Corn plant response rating): 10%; plant injury at 125 g/ha (corn [4]; Zea mays, pre-emergence, 125 g ai/ha, preemergence, scale 0 (no effect) to 100 (complete control), read-out: Corn plant response rating): 70%; Corn plant response rating (crop injury, 0 = no effect, 100 = complete kill) at 62 g/ha (corn [4]; Zea mays, pre-emergence, Preemergence, 62 g ai/ha, scale 0 to 100, 0 no effect, 100 complete control): 40%; pest or weed control at 31 g/ha (barnyardgrass [1]; Echinochloa crus-galli, post-emergence, 240 h, 31 g ai/ha, 0 to 100 scale, 0 no effect, 100 complete control, read-out: Plant response rating, Barnyardgrass): 20%; pest or weed control at 125 g/ha (barnyardgrass [1]; Echinochloa crus-galli, post-emergence, 240 h, 125 g ai/ha, 0 to 100 scale, 0 no effect, 100 complete control, read-out: Plant response rating, Barnyardgrass): 100%; pest or weed control at 500 g/ha (barnyardgrass [1]; Echinochloa crus-galli, post-emergence, 240 h, 500 g ai/ha, 0 to 100 scale where 0 is no effect and 100 is complete control, read-out: Plant response rating, Barnyardgrass): 100%; pest or weed control at 250 g/ha (barnyardgrass [2]): 40%; pest or weed control at 250 g/ha (sedge, umbrella): 80%
Fc1cccc(Oc2ncc(Cl)cn2)c1-n1cc(OCC(F)(F)F)cn1 [Compound 270] | 35 | 90 | 5 |  | 100 |  | 0 |  | 55 |  | 10 | Plant response rating, Foxtail, Giant (giant foxtail; [12]): 100; Plant response rating, Corn (corn [4]; [12]): 20; Plant response rating, Barnyardgrass (barnyardgrass [1]; [13]): 80
